In patent publication US12600732B2, “Bifunctional compounds for degrading BTK via ubiquitin proteosome pathway” (NURIX THERAPEUTICS, INC., priority 2019, dated 2026):
Values joined by “and” are separate entries in the source; they are usually repeats but may differ in a detail not shown here. Equal values may be shown once.

Experiments:
primary human T cells [1] = assay: T cell activation assay, CD25 and CD69 staining (flow cytometry); format: cell-based; settings: for CD25 Staining Anti-CD3/Anti-CD28 Stimulation / CD69 Staining Anti-CD3/Anti-CD28 Stimulation: fold-change of response relative to baseline; for expression of CD25 and CD69 compared to baseline (anti-CD3/anti-CD28 stimulation alone): primary human T cells
Method: (§1) This example evaluates whether CTMs with IMiD activity affect T cell activation. […] These assays were performed to assess whether BTK CTMs with and without IMiD activity affected activation of primary human T cells after stimulation of the T cell receptor with anti-CD3/ati-CD28 stimulation. T cell activation was measured by IL-2 secretion (ELISA assay) and upregulation of activation markers CD25 and CD69 on the surface of T cells (flow cytometry). Data are presented as the fold-change of response relative to baseline (stimulation with anti-CD3/anti-CD28 stimulation in the absence of compound).

primary human T cells [2] = assay: T cell activation assay, IL-2 secretion (ELISA); format: cell-based; settings: for IL-2 secretion compared to baseline (anti-CD3/anti-CD28 stimulation alone): primary human T cells
Method: as §1

BTK = biological target: T1, BTK (Mus musculus, UniProt P35991); assay: In vivo degradation of BTK in mouse PD experiments with oral dosing
T1 construct: from tissue; host or cells: mouse blood B cells / splenocytes (CD-1 or BALB/c)
T1 sequence (P35991 whole entry): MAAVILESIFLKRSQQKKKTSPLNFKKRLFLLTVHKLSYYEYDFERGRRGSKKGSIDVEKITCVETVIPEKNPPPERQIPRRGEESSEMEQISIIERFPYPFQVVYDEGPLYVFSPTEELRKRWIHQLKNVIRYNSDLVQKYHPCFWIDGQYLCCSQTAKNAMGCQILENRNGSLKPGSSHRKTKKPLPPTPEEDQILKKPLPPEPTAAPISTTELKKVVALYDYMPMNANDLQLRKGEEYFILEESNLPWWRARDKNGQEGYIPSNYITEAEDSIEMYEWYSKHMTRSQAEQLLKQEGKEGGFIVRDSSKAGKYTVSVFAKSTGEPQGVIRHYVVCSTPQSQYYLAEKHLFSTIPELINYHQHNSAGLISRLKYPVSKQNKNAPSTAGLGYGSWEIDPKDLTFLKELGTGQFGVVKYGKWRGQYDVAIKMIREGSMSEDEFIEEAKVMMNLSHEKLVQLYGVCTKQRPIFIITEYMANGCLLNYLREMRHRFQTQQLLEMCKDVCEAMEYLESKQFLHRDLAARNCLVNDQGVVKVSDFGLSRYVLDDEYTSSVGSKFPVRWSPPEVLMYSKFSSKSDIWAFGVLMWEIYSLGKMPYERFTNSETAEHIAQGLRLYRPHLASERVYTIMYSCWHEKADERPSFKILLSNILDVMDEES
Method: A method of determining the pharmacodynamic profile of BTK degraders was performed by dosing either CD-1 or BALB/c mice with CTM. The CTM was prepared in a suitable formulation and was administered via oral gavage (PO) at a suitable dose level and frequency as informed by prior pharmacokinetic and tolerability studies. Following administration of CTM, BTK levels in blood or splenocytes are measured using flow cytometry or HTRF. For assessment of BTK levels via flow cytometry, either whole blood or splenocytes were first treated with ACK RBC lysis buffer to facilitate lysing of red blood cells. Remaining cells were then stained with fluorophore-conjugated antibodies against CD45, TCR beta and CD45R (B220). Cell pellets were washed with 1×PBS, fixed, and permeabilized for twenty-four hours with Foxp3/Transcription Factor Fixation/Permeabilization Kit. Cells were then stained intracellularly with unconjugated BTK antibody and detected with a fluorophore-conjugated secondary antibody. Stained cells were run on an Attune N×T Acoustic Focusing Flow Cytometer (Thermo-Fisher A29004), and data was analyzed using FlowJo (v10.5.3) and GraphPad Prism (v7.00) software. Lymphocytes were gated for B cells defined as CD45+ TCR beta−B220+ and T cells as CD45+ TCR beta+B220−. The BTK geometric mean fluorescence intensity (MFI) was calculated for B and T cells. Percent BTK degradation for each compound-treated sample was calculated using the equation described below: % Degradation=100*(Treated sample B cell BTK MFI-treated sample T cell BTK MFI)/Vehicle B cell BTK MFI-Vehicle T cell BTK MFI)
This example evaluates in vivo activity of BTK CTMs via a direct mouse PD measurement following oral dosing
Screens were completed at 90 mg/kg for six hours, and then changed to lower doses/longer time points after seeing strong BTK degradation activity with an initial set of compounds. This assay was useful in selecting compounds for in vivo efficacy experiments.

[3] = PK data for BTK CTMs (in vivo plasma concentrations); settings: Mouse Balb/c
Text: The present example evaluates in vivo plasma concentrations of BTK CTMs to develop PK-PD-efficacy relationship and predict human exposure.

TMD8 cells = assay: Cell viability assay (CellTiter-Glo), TMD8 cells; settings: for EC50: Homo sapiens, TMD8, 72 h; for EMAX (% viable cells): TMD8 cells, treatment time 72 h
TMD8 C481S cells = assay: Cell viability assay (CellTiter-Glo), TMD8 C481S cells; settings: for EC50: Homo sapiens, TMD8, 72 h; for EMAX (% viable cells): TMD8 C481S cells, treatment time 72 h
[4] = 1.4 nM, fold-change of response relative to baseline
[5] = 37 nM, fold-change of response relative to baseline
[6] = 333 nM, fold-change of response relative to baseline (stimulation without compound)
[7] = oral dose 3 mg/kg, 6 h, blood, flow cytometry

| SMILES | CD25 Staining Anti-CD3/Anti-CD28 Stimulation (primary human T cells [1]; 1.4 nM) | CD69 Staining Anti-CD3/Anti-CD28 Stimulation (primary human T cells [1]; 1.4 nM) | CD25 Staining Anti-CD3/Anti-CD28 Stimulation (primary human T cells [1]; 37 nM) | CD69 Staining Anti-CD3/Anti-CD28 Stimulation (primary human T cells [1]; 37 nM) | CD25 Staining Anti-CD3/Anti-CD28 Stimulation (primary human T cells [1]; 333 nM) | CD69 Staining Anti-CD3/Anti-CD28 Stimulation (primary human T cells [1]; 333 nM) | IL-2 Secretion Anti-CD3/Anti-CD28 Stimulation (primary human T cells [2]; [4]) | IL-2 Secretion Anti-CD3/Anti-CD28 Stimulation (primary human T cells [2]; [5]) | IL-2 Secretion Anti-CD3/Anti-CD28 Stimulation (primary human T cells [2]; [6]) | further results |
| --- | --- | --- | --- | --- | --- | --- | --- | --- | --- | --- |
| CN1CCN([C@H]2CCCN(c3cnc(C(N)=O)c(Nc4ccc5c(c4)CCN(CC4CN(c6ccc7c(c6)C(=O)N(C6CCC(=O)NC6=O)C7=O)C4)C5)n3)C2)C1=O (stereo partly shown) [Compound 92] | 1.14 | 1.09 | 1.21 | 1.29 | 1.06 | 1.35 | 1.53 | 2.19 | 1.63 | – |
| CN1CCN([C@@H]2CCCN(c3cnc(C(N)=O)c(Nc4ccc(N5CC6(C5)CN(c5ccc7c(c5)C(=O)N(C5CCC(=O)NC5=O)C7=O)C6)cc4)n3)C2)C1=O (stereo partly drawn) [Compound 34, 3-((4-(6-(2-(2,6-dioxopiperidin-3-yl)-1,3-dioxoisoindolin-5-yl)-2,6-diazaspiro[3.3]heptan-2-yl)phenyl)amino)-5-((R)-3-(3-methyl-2-oxoimidazolidin-1-yl)piperidin-1-yl)pyrazine-2-carboxamide] | 1.21 | 1.14 | 1.31 | 1.21 | 1.25 | 1.23 | 1.48 | 1.66 | 1.58 | % BTK Remaining (BTK; oral dose 1 mg/kg, 6 h, splenocytes, HTRF): 75% |
| CN1CCN([C@@H]2CCCN(c3cnc(C(N)=O)c(Nc4ccc(C5CCN(CCCNc6cccc7c6C(=O)N(C6CCC(=O)NC6=O)C7=O)CC5)cc4)n3)C2)C1=O (stereo partly shown) [Compound 155] | 1.31 | 1.25 | 1.46 | 1.34 | 1.21 | 1.20 | 1.62 | 3.13 | 3.11 | – |
| CN1CCN([C@@H]2CCCN(c3cnc(C(N)=O)c(Nc4ccc(C5CCN(C6CN(Cc7ccc8c(c7)CN(C7CCC(=O)NC7=O)C8=O)C6)CC5)cc4)n3)C2)C1=O (stereo partly shown) [Compound 86] | – | – | – | – | – | – | – | – | – | AUC ([3]; 1 mg/kg IV): 0.5 µM·h; clearance ([3]; 1 mg/kg IV): 35 mL/min/kg; Vd ([3]; 1 mg/kg IV, read-out: Volume of Distribution): 7.7 L/kg; AUC ([3]; 30 mg/kg PO): 0.34 µM·h; bioavailability ([3]; 30 mg/kg PO): 2%; EC50 (TMD8 cells): 0.67 nM; EMAX (% viable cells) (TMD8 cells): 27%; % BTK Remaining (BTK; [7]): 56%; % BTK Remaining (BTK; oral dose 3 mg/kg, 24 h, blood, flow cytometry): 70%; EC50 (TMD8 C481S cells): 4.78 nM; EMAX (% viable cells) (TMD8 C481S cells): 30% |
| CN1CCN([C@H]2CCCN(c3cnc(C(N)=O)c(Nc4cnn(C5CCN(CC6CN(c7ccc8c(c7)C(=O)N(C7CCC(=O)NC7=O)C8=O)C6)CC5)c4)n3)C2)C1=O (stereo partly shown) [Compound 78] | 0.99 | 1.00 | 0.73 | 0.66 | 0.44 | 0.43 | 1.00 | 1.17 | 1.20 | EC50 (TMD8 cells): 9.04 nM; EMAX (% viable cells) (TMD8 cells): 41%; % BTK Remaining (BTK; [7]): 74%; EC50 (TMD8 C481S cells): 7.19 nM; EMAX (% viable cells) (TMD8 C481S cells): 37% |
| CN1CCN([C@@H]2CCCN(c3cnc(C(N)=O)c(Nc4ccc(C5CCN(C[C@H]6CC[C@H](Nc7cccc8c7C(=O)N(C7CCC(=O)NC7=O)C8=O)CC6)CC5)cc4)n3)C2)C1=O (stereo partly shown) [Compound 154] | 1.23 | 1.18 | 1.36 | 1.29 | 1.13 | 1.16 | 1.77 | 3.38 | 3.45 | – |
| Nc1cccc2c1CN(C1CCC(=O)NC1=O)C2=O (stereo not shown) [Lenalidomide, lenalidomide, reference compound] | 1.26 | 1.20 | 1.73 | 1.49 | 1.93 | 1.81 | 1.63 | 4.48 | 8.67 | expression of CD25 and CD69 compared to baseline (anti-CD3/anti-CD28 stimulation alone) (primary human T cells [1]): increase expression; IL-2 secretion compared to baseline (anti-CD3/anti-CD28 stimulation alone) (primary human T cells [2]): induce IL-2 secretion |
| CN1CCN([C@@H]2CCCN(c3cnc(C(N)=O)c(Nc4ccc(N5CCN(C[C@@H]6[C@H]7CN(c8ccc9c(c8)C(=O)N(C8CCC(=O)NC8=O)C9=O)C[C@@H]67)CC5)cc4)n3)C2)C1=O (stereo partly shown) [Compound 38] | 1.05 | 1.02 | 1.02 | 0.99 | 0.86 | 0.90 | 1.21 | 1.58 | 1.81 | % BTK Remaining (BTK; oral dose 1 mg/kg, 6 h, splenocytes, HTRF, 1 mg/kg): 68% and 76%; % BTK Remaining (BTK; oral dose 3 mg/kg, 6 h, splenocytes, HTRF): 38% |
| CN1CCN([C@@H]2CCCN(c3cnc(C(N)=O)c(Nc4ccc(C5CCN(CC6CCN(c7ccc8c(c7)C(=O)N(C7CCC(=O)NC7=O)C8=O)CC6)CC5)cc4)n3)C2)C1=O (stereo partly shown) [Compound 51] | 0.86 | 0.91 | 0.62 | 0.62 | 0.38 | 0.39 | 1.19 | 1.99 | 2.12 | EC50 (TMD8 cells): 0.32 nM; EMAX (% viable cells) (TMD8 cells): 20%; % BTK Remaining (BTK; oral dose 90 mg/kg, 6 h, splenocytes, HTRF): 2%; EC50 (TMD8 C481S cells): 1.95 nM; EMAX (% viable cells) (TMD8 C481S cells): 49% |
| Nc1cccc2c1C(=O)N(C1CCC(=O)NC1=O)C2=O (stereo not shown) [Pomalidomide, pomalidomide, reference compound] | 1.03 | 1.01 | 1.39 | 1.33 | 1.63 | 1.77 | 1.31 | 4.80 | 5.50 | expression of CD25 and CD69 compared to baseline (anti-CD3/anti-CD28 stimulation alone) (primary human T cells [1]): increase expression; IL-2 secretion compared to baseline (anti-CD3/anti-CD28 stimulation alone) (primary human T cells [2]): induce IL-2 secretion |
| CN1CCN([C@@H]2CCCN(c3cnc(C(N)=O)c(Nc4ccc(OCCCNc5ccc6c(c5)C(=O)N(C5CCC(=O)NC5=O)C6=O)cc4)n3)C2)C1=O (stereo partly shown) [Compound 64] | 1.17 | 1.14 | 1.04 | 1.14 | 0.34 | 0.64 | 1.28 | 1.80 | 1.48 | – |
